The values below are quoted from earlier work in patent US12247090B2, “Enzyme-mediated free radical initiating systems for the production of hydrogels and controlled radical polymerization processes” (Duke University, priority 2021, dated 2025).

For this series, the system named is rat. The following applies: in vivo, po.

The term LD50 denotes the dose expected to kill half of the subjects tested. With `CC(=O)CC(C)=O` [ACAC, acetylacetone], the LD50 was 55 mg/kg.
